Measured values taken from US9242984B2, “Pyrazolyl derivatives as Syk inhibitors” (Merck Sharp & Dohme Corp., priority 2012, dated 2016).
pIC50: −log10 of the molar value.

What follows are molecules tested against T1, recombinant human Syk (GST-hSyk fusion protein) (Homo sapiens, UniProt P43405) (assay: Homogeneous Time-Resolved Fluorescence (HTRF) assay for the recombinant human Syk enzyme). Details: 10-dose titration, 25 μM ATP; read-out: rhSYK IC50.
T1 construct: purchased Carna Biosciences 08-176
Format: biochemical
In short: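 IC50 came from a four-parameter fit over ten doses, 10 μM to 0.508 nM, with HTRF read-out (Eu-anti-pTyr antibody, SA-APC, EDTA stop, 30 min). The enzyme, 5 pM GST-hSyk, met compound for 10 min, then phosphorylated 250 nM biotin-peptide with 25 μM ATP and 5 mM Mg for 45 min at room temperature, pH 7.5.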
`Cc1cc(Nc2nccc(C(F)(F)F)n2)cc(-c2cnn(CC3CN(C)C(=O)O3)c2)c1` (single isomer, unassigned) [Example 3.1, 3-methyl-5-{[4-(3-methyl-5-{[4-(trifluoromethyl)pyrimidin-2-yl]amino}phenyl)-1H-pyrazol-1-yl]methyl}-1,3-oxazolidin-2-one] showed a pIC50 of 7.51.
Molecule `Cc1cc(Nc2nccc(C(F)F)n2)cc(-c2cnn(C3CCCCC(O)C3O)c2)c1` (stereo not shown) [Example 22.15, 3-[4-(3-{[4-(difluoromethyl)pyrimidin-2-yl]amino}-5-methylphenyl)-1H-pyrazol-1-yl]cycloheptane-1,2-diol] has a pIC50 of 8.59.
In the case of `Cc1cc(Nc2nccc(C(F)F)n2)cc(-c2cnn(CCNS(C)(=O)=O)c2)c1` [Example 27.1, N-(2-(4-(3-((4-(Difluoromethyl)pyrimidin-2-yl)amino)-5-methylphenyl)-1H-pyrazol-1-yl)ethyl)methanesulfonamide], the pIC50 was 8.07.

Same assay, conditions: IC50 class; 10-dose titration, 25 μM ATP; read-out: rhSYK Activity
With `Cc1cc(Nc2nccc(C(F)F)n2)cc(-c2cnn(CC(O)CO)c2)c1` (stereo not shown) [Example 3.112, 3-[4-(3-{[4-(difluoromethyl)pyrimidin-2-yl]amino}-5-methylphenyl)-1H-pyrazol-1-yl]propane-1,2-diol] the pIC50 was at least 7.00.
In the case of `Cc1cc(Nc2ncc(F)c(C(F)F)n2)cc(-c2cnn(CC(C)(O)CC#N)c2)c1` (stereo not shown) [Example 20.5, 4-[4-(3-{[4-(difluoromethyl)-5-fluoropyrimidin-2-yl]amino}-5-methylphenyl)-1H-pyrazol-1-yl]-3-hydroxy-3-methylbutanenitrile], the pIC50 was at least 7.00.
`Cc1ccnc(Nc2cccc(-c3cnn(CC4CNC(=O)O4)c3)c2)n1` (stereo not shown) [Example 2.20, 5-[(4-{3-[(4-methylpyrimidin-2-yl)amino]phenyl}-1H-pyrazol-1-yl)methyl]-1,3-oxazolidin-2-one] showed a pIC50 of at least 7.00.
`Cc1cc(Nc2nccc([C@H](C)F)n2)cc(-c2cnn(CC(C)(O)CO)c2)c1` (single isomer, unassigned) [Example 25.7] was tested, and the pIC50 was at least 7.00.
`COc1ccnc(Nc2cccc(-c3cnn(C[C@@H](O)C(=O)O)c3)c2)n1` [Example 11.11, (2R)-2-hydroxy-3-(4-{3-[(4-methoxy-pyrimidin-2-yl)amino]phenyl}-1H-pyrazol-1-yl)propanoic acid] showed a pIC50 of at least 7.00.
`Cc1cc(Nc2nccc(C(F)(F)F)n2)cc(-c2n[nH]c3ccccc23)c1` [Example 2.47, N-[3-(1H-indazol-3-yl)-5-methylphenyl]-4-(trifluoromethyl)-pyrimidin-2-amine] gave a pIC50 of 6.00 to 7.00.
In the case of `Cc1cc(Nc2nccc(C(F)(F)F)n2)cc(-c2cnn(CCCO)c2)c1` [Example 3.31, 3-[4-(3-methyl-5-{[4-(trifluoromethyl)pyrimidin-2-yl]amino}-phenyl)-1H-pyrazol-1-yl]propan-1-ol], the pIC50 was at least 7.00.
`Cc1cc(Nc2nccc(C(F)(F)F)n2)cc(-c2cnn(CC3OC(=O)NC3C)c2)c1` (stereo not shown) [Example 3.119, 4-methyl-5-{[4-(3-methyl-5-{[4-(trifluoromethyl)pyrimidin-2-yl]amino}phenyl)-1H-pyrazol-1-yl]methyl}-1,3-oxazolidin-2-one] showed a pIC50 of at least 7.00.
`CCNC(=O)NC(C)(C)Cn1cc(-c2cc(C)cc(Nc3nccc(C(F)F)n3)c2)cn1` [Example 27.8, 1-{2-[4-(3-{[4-(difluoromethyl)pyrimidin-2-yl]amino}-5-methylphenyl)-1H-pyrazol-1-yl]-1,1-dimethylethyl}-3-ethylurea] showed a pIC50 of at least 7.00.
Molecule `Cc1cc(Nc2nccc(C(F)F)n2)cc(-c2cn[nH]c2)c1` [Example 1.65, 4-(difluoromethyl)-N-[3-methyl-5-(1H-pyrazol-4-yl)phenyl]pyrimidin-2-amine] has a pIC50 of at least 7.00.
With `Cc1cc(Nc2nccc(C(F)F)n2)cc(-c2cnn(CC3OC(=O)NC3C)c2)c1` (single isomer, unassigned) [Example 23.14, 5-{[4-(3-{[4-(difluoromethyl)pyrimidin-2-yl]amino}-5-methylphenyl)-1H-pyrazol-1-yl]methyl}-4-methyl-1,3-oxazolidin-2-one] the pIC50 was at least 7.00.
`Cc1cc(Nc2nccc(C)n2)cc(-c2cnn(CC3OC(=O)NC3C)c2)c1` (single isomer, unassigned) [Example 23.7, 4-methyl-5-[(4-{3-methyl-5-[(4-methylpyrimidin-2-yl)amino]phenyl}-1H-pyrazol-1-yl)methyl]-1,3-oxazolidin-2-one] showed a pIC50 of at least 7.00.
For `Cc1cc(Nc2nccc(C)n2)cc(-c2cnn(CC3OC(=O)NC3(C)C)c2)c1` (stereo not shown) [Example 3.105, 4,4-dimethyl-5-[(4-{3-methyl-5-[(4-methylpyrimidin-2-yl)amino]phenyl}-1H-pyrazol-1-yl)methyl]-1,3-oxazolidin-2-one], the pIC50 was at least 7.00.
`Cc1cc(Nc2nccc(C(F)(F)F)n2)cc(-c2cnn(C[C@@H](O)C(N)=O)c2)c1` [Example 8.2, (2R)-2-hydroxy-3-[4-(3-methyl-5-{[4-(trifluorometh-yl)pyrimidin-2-yl]amino}phenyl)-1H-pyrazol-1-yl]propanamide] showed a pIC50 of at least 7.00.
With `Cc1cc(Nc2nccc(C3CC3)n2)cc(-n2cc(CCC(=O)O)cn2)c1` [Example 19.3, 3-(1-{3-[(4-cyclopropylpyrimidin-2-yl)amino]-5-methylphenyl}-1H-pyrazol-4-yl)propanoic acid] the pIC50 was at least 7.00.
For `Cc1cc(Nc2nccc(C(F)F)n2)cc(-c2cnn(CC(O)CN)c2)c1` (stereo not shown) [Example 5.37, 1-amino-3-[4-(3-{[4-(difluoromethyl)pyrimidin-2-yl]amino}-5-methylphenyl)-1H-pyrazol-1-yl]propan-2-ol], the pIC50 was at least 7.00.
`Cc1cc(Nc2nccc(C(F)(F)F)n2)cc(-c2cnn(C[C@@H]3COC(=O)N3)c2)c1` [Example 3.97, (4R)-4-{[4-(3-methyl-5-{[4-(trifluoromethyl)pyrimidin-2-yl]amino}phenyl)-1H-pyrazol-1-yl]methyl}-1,3-oxazolidin-2-one] was tested, and the pIC50 was at least 7.00.
In the case of `COCCOC(=O)NCCn1cc(-c2cc(C)cc(Nc3nccc(C(F)F)n3)c2)cn1` [Example 27.3, 2-methoxyethyl {2-[4-(3-{[4-(difluoromethyl)pyrimidin-2-yl]amino}-5-methylphenyl)-1H-pyrazol-1-yl]ethyl}carbamate], the pIC50 was at least 7.00.
Molecule `Cc1cc(Nc2nccc(C(F)(F)F)n2)cc(-c2cnn(CC3CN(C)C(=O)O3)c2)c1` (single isomer, unassigned) [Example 3.1, 3-methyl-5-{[4-(3-methyl-5-{[4-(trifluoromethyl)pyrimidin-2-yl]amino}phenyl)-1H-pyrazol-1-yl]methyl}-1,3-oxazolidin-2-one] has a pIC50 of at least 7.00.
`Cc1cc(Nc2nccc(C(F)F)n2)cc(-c2cnn(C(C)C3CNC(=O)C3)c2)c1` (stereo not shown) [Example 2.70, 4-{1-[4-(3-{[4-(difluoromethyl)pyrimidin-2-yl]amino}-5-methylphenyl)-1H-pyrazol-1-yl]ethyl}pyrrolidin-2-one] showed a pIC50 of at least 7.00.
For `Cc1cc(Nc2nccc(OCCO)n2)cc(-c2cnn(C3CCC(C(N)=O)CC3)c2)c1` (stereo not shown) [Example 8.17, 4-[4-(3-{[4-(2-hydroxy-ethoxy)pyrimidin-2-yl]amino}-5-methylphenyl)-1H-pyrazol-1-yl]-cyclo-hexanecarboxamide], the pIC50 was at least 7.00.
`Cc1cc(Nc2nccc(C(F)(F)F)n2)cc(-c2cnn(CC(C)(O)C(=O)O)c2)c1` (racemic) [Example 5.6, 2-hydroxy-2-methyl-3-[4-(3-methyl-5-{[4-(trifluoro-methyl)pyrimidin-2-yl]amino}-phenyl)-1H-pyrazol-1-yl]propanoic acid] showed a pIC50 of at least 7.00.
With `Cc1cc(Nc2nccc(C(F)F)n2)cc(-c2cnn(C3CCCCC(O)C3O)c2)c1` (stereo not shown) [Example 22.15, 3-[4-(3-{[4-(difluoromethyl)pyrimidin-2-yl]amino}-5-methylphenyl)-1H-pyrazol-1-yl]cycloheptane-1,2-diol] the pIC50 was at least 7.00.
`COCCCNC(=O)[C@@H](O)Cn1cc(-c2cc(C)cc(Nc3nccc(C(F)(F)F)n3)c2)cn1` [Example 6.12, (2S)-2-hydroxy-N-(3-methoxypropyl)-3-[4-(3-methyl-5-{[4-(trifluorometh-yl)pyrimidin-2-yl]amino}phenyl)-1H-pyrazol-1-yl]propanamide] gave a pIC50 of at least 7.00.
Molecule `Cc1cc(Nc2nccc(C(F)F)n2)cc(-c2cnn(CCNS(C)(=O)=O)c2)c1` [Example 27.1, N-(2-(4-(3-((4-(Difluoromethyl)pyrimidin-2-yl)amino)-5-methylphenyl)-1H-pyrazol-1-yl)ethyl)methanesulfonamide] has a pIC50 of at least 7.00.
Work on “1-[4-(3-methyl-5-{[4-(trifluoro-ethyl)pyrimidin-2-yl]amino}-phenyl)-1H-pyrazol-1-yl]-3-morpholin-4-ylpropan-2-ol [Example 5.10]” yielded a pIC50 of at least 7.00.
Molecule `Cc1cc(Nc2nccc(C(F)F)n2)cc(-c2cnn(CC(C)(O)CC#N)c2)c1` (stereo not shown) [Example 20.7, 4-[4-(3-{[4-(difluoromethyl)pyrimidin-2-yl]amino}-5-methylphenyl)-1H-pyrazol-1-yl]-3-hydroxy-3-methylbutanenitrile] has a pIC50 of at least 7.00.
Molecule `Cc1cc(Nc2nccc(C(F)(F)F)n2)cc(-c2cnn(CC(N)=O)c2)c1` [Example 3.37, 2-[4-(3-methyl-5-{[4-(trifluoromethyl)pyrimidin-2-yl]amino}-phenyl)-1H-pyrazol-1-yl]acetamide] has a pIC50 of at least 7.00.
Work on `Cc1cc(Nc2nccc(C(F)(F)F)n2)cc(-c2cnn(CC3(O)CCOCC3)c2)c1` [Example 12.5, 4-{[4-(3-methyl-5-{[4-(trifluoromethyl)pyrimidin-2-yl]amino}phenyl)-1H-pyrazol-1-yl]methyl}-tetrahydro-2H-pyran-4-ol] yielded a pIC50 of at least 7.00.
In the case of `Cc1cc(Nc2nccc(C(F)F)n2)cc(-c2cnn(C(C)C3CNC(=O)C3)c2)c1` (stereo not shown) [Example 2.68, 4-{1-[4-(3-{[4-(difluoromethyl)pyrimidin-2-yl]amino}-5-methylphenyl)-1H-pyrazol-1-yl]ethyl}pyrrolidin-2-one], the pIC50 was at least 7.00.
With `Cc1cc(Nc2ncc(F)c(C)n2)cc(-c2cnn(C[C@](C)(O)CO)c2)c1` [Example 2.94, (2S)-3-(4-{3-[(5-fluoro-4-methylpyrimidin-2-yl)amino]-5-methylphenyl}-1H-pyrazol-1-yl)-2-methylpropane-1,2-diol] the pIC50 was at least 7.00.
For `Cc1cc(Nc2nccc(C(F)F)n2)cc(-c2cnn(CC3CC(=O)NC3=O)c2)c1` (stereo not shown) [Example 2.73, 3-{[4-(3-{[4-(difluoromethyl)pyrimidin-2-yl]amino}-5-methylphenyl)-1H-pyrazol-1-yl]methyl}pyrrolidine-2,5-dione], the pIC50 was at least 7.00.
With `Cc1cc(Nc2nccc(C(F)(F)F)n2)cc(-c2cnn3ncccc23)c1` [Example 2.35, N-(3-methyl-5-pyrazolo[1,5-b]pyridazin-3-ylphenyl)-4-(trifluoromethyl)pyrimidin-2-amine] the pIC50 was at least 7.00.
Molecule `Cc1cc(Nc2cc(C(F)(F)F)ccn2)nc(-c2cnn(CC(C)(O)CO)c2)c1` (stereo not shown) [Example 21.5, 2-methyl-3-[4-(4-methyl-6-{[4-(trifluoromethyl)pyridin-2-yl]amino}pyridin-2-yl)-1H-pyrazol-1-yl]propane-1,2-diol] has a pIC50 of at least 7.00.
